Reference: patent publication US20250388583A1, “COMPOUNDS AND METHOD FOR PKMYT1 INHIBITION” (Engine Biosciences Pte. Ltd., priority 2022, published 2025)

Target: LCK (Homo sapiens (Human), UniProt P06239)
Experiment: In vitro assay: kinase binding to immobilized ligand, captured kinase measured by qPCR
Excerpt: Example B-1: In Vitro Assay
Compounds that bind the kinase active site and directly (sterically) or indirectly (allosterically) prevent kinase binding to an immobilized ligand and reduce the amount of kinase captured on the solid support. Screening “hits” were identified by measuring the amount of kinase captured in test versus control samples by using a quantitative, precise and ultra-sensitive qPCR method that detect the associated DNA label. In a similar manner, dissociation constants (Kd's) for test compound-kinase interactions were calculated by measuring the amount of kinase captured on the solid support as a function of the test compound concentration.

Chain of LCK (P06239 whole entry): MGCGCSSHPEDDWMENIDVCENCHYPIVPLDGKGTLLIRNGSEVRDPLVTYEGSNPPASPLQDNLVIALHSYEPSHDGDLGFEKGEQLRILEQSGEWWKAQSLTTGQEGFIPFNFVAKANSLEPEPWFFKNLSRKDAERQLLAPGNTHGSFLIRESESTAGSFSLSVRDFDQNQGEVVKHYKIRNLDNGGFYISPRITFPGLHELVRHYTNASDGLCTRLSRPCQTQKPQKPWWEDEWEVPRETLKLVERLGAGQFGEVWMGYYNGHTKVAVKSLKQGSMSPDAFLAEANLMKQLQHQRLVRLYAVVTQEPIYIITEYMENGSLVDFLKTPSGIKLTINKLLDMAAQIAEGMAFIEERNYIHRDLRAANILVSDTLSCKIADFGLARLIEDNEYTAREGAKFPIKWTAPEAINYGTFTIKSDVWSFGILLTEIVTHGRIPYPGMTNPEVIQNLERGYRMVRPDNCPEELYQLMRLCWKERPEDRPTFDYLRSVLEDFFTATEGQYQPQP

`Cc1ccc(O)c(C)c1-n1c(N)c(C(N)=O)c2cnc(C#CC(F)(F)F)nc21` [Compound 648] and `Cc1ncc2c(C(N)=O)c(N)n(-c3c(C)ccc(O)c3C)c2n1` (single isomer, unassigned) [Compound 577, 6-amino-7-(3-hydroxy-2,6-dimethyl-phenyl)-2-methyl-pyrrolo[2,3-d]pyrimidine-5-carboxamide] cannot be ordered by IC50: < 50 nM for the first, < 50 nM for the second.

First: Cc1nc(C)c2c(C(N)=O)c(N)n(-c3c(C)ccc(O)c3C)c2n1 [Compound 566, 6-amino-7-(3-hydroxy-2,6-dimethylphenyl)-2,4-dimethyl-7H-pyrrolo[2,3-d]pyrimidine-5-carboxamide]
Second: Cc1ncc2c(C(N)=O)c(N)n(-c3c(C)ccc(O)c3C)c2n1 (single isomer, unassigned) [Compound 578, 6-amino-7-(3-hydroxy-2,6-dimethyl-phenyl)-2-methyl-pyrrolo[2,3-d]pyrimidine-5-carboxamide]
The IC50 of the first is lower: 100 to 1000 nM for the first, > 1000 nM for the second. The first is the more potent here.

First: Cc1ncc2c(C(N)=O)c(N)n(-c3c(C)c(O)cc(F)c3C)c2n1 (atropisomer, axis not shown) [Compound 606, 6-amino-7-(3-fluoro-5-hydroxy-2,6-dimethyl-phenyl)-2-methyl-pyrrolo[2,3-d]pyrimidine-5-carboxamide]
Second: Cc1cc2c(C(N)=O)c(N)n(-c3c(C)ncc(O)c3C)c2nc1C [Compound 560, 2-amino-1-(5-hydroxy-2,4-dimethylpyridin-3-yl)-5,6-dimethyl-1H-pyrrolo[2,3-b]pyridine-3-carboxamide]
The IC50 of the first is lower: < 50 nM for the first, 100 to 1000 nM for the second.

In the case of `Cc1c(O)cc(F)c(C)c1-n1c(N)c(C(N)=O)c2cnc(C3CC3)c(F)c21` (atropisomer, axis not shown) [Compound 655], the IC50 is reported as < 50 nM.

Target: PKMYT1 (Homo sapiens (Human), UniProt Q99640)
Experiment: as above

Chain of PKMYT1 (Q99640 whole entry): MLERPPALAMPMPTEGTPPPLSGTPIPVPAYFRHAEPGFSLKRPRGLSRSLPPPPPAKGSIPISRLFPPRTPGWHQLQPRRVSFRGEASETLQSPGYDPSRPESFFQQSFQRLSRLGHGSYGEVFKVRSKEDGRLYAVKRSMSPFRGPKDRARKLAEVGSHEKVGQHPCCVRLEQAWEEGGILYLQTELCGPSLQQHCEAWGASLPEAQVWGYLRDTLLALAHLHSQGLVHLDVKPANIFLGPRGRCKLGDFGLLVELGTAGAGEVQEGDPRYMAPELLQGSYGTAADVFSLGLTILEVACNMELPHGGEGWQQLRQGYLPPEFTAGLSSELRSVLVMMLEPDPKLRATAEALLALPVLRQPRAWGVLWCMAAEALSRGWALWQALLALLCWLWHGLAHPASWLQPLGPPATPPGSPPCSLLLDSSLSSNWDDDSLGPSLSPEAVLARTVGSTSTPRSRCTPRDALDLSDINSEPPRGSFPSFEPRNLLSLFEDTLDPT

`Cc1ccc(O)c(C)c1-n1c(N)c(C(N)=O)c2c(C)ncc(F)c21` [Compound 582, 2-amino-7-fluoro-1-(3-hydroxy-2,6-dimethyl-phenyl)-4-methyl-pyrrolo[3,2-c]pyridine-3-carboxamide] and `Cc1ccc(O)c(C)c1-n1c(N)c(C(N)=O)c2cncc(F)c21` (atropisomer, axis not shown) [Compound 624, 2-amino-7-fluoro-1-(3-hydroxy-2,6-dimethyl-phenyl)pyrrolo[3,2-c]pyridine-3-carboxamide] cannot be ordered by IC50: < 50 nM for the first, < 50 nM for the second.

Compared with `Cc1ccc(O)c(C)c1-n1c(N)c(C(N)=O)c2cnc(C#CC(F)(F)F)nc21` [Compound 648], `Cc1ccc(O)c(C)c1-n1c(N)c(C(N)=O)c2cnc(C(F)(F)F)nc21` [Compound 608, 6-amino-7-(3-hydroxy-2,6-dimethylphenyl)-2-(trifluoromethyl)-7H-pyrrolo[2,3-d]pyrimidine-5-carboxamide] is lower in IC50: 50 to 100 nM for the first, < 50 nM for the second. The second is the more potent here.

`Cc1nc(C)c2c(C(N)=O)c(N)n(-c3c(C)ccc(O)c3C)c2n1` [Compound 566, 6-amino-7-(3-hydroxy-2,6-dimethylphenyl)-2,4-dimethyl-7H-pyrrolo[2,3-d]pyrimidine-5-carboxamide] and `Cc1ccc(O)c(C)c1-n1c(N)c(C(N)=O)c2cnc(Cl)nc21` [Compound 618, 6-amino-2-chloro-7-(3-hydroxy-2,6-dimethylphenyl)-7H-pyrrolo[2,3-d]pyrimidine-5-carboxamide] cannot be ordered by IC50: < 50 nM for the first, < 50 nM for the second.

`Cc1ncc2c(C(N)=O)c(N)n(-c3c(C)c(O)cc(F)c3C)c2n1` (atropisomer, axis not shown) [Compound 606, 6-amino-7-(3-fluoro-5-hydroxy-2,6-dimethyl-phenyl)-2-methyl-pyrrolo[2,3-d]pyrimidine-5-carboxamide] and `Cc1ncc2c(C(N)=O)c(N)n(-c3c(C)c(O)cc(Cl)c3C)c2n1` [Compound 619, 6-amino-7-(3-chloro-5-hydroxy-2,6-dimethylphenyl)-2-methyl-7H-pyrrolo[2,3-d]pyrimidine-5-carboxamide] cannot be ordered by IC50: < 50 nM for the first, < 50 nM for the second.

Compared with `Cc1ccc(O)c(C)c1-n1c(N)c(C(N)=O)c2cncnc21` (single isomer, unassigned) [Compound 571, 6-amino-7-(3-hydroxy-2,6-dimethylphenyl)-7H-pyrrolo[2,3-d]pyrimidine-5-carboxamide], `Cc1ccc(O)c(C)c1-n1c(N)c(C(N)=O)c2cnc(S(C)(=O)=O)nc21` [Compound 625, 6-amino-7-(3-hydroxy-2,6-dimethylphenyl)-2-(methylsulfonyl)-7H-pyrrolo[2,3-d]pyrimidine-5-carboxamide] is lower in IC50: 100 to 1000 nM for the first, < 50 nM for the second. The second is the more potent here.

`Cc1ccc(O)c(C)c1-n1c(N)c(C(N)=O)c2cnc(N3CC[C@H](O)C3)nc21` [Compound 581, 6-amino-7-(3-hydroxy-2,6-dimethyl-phenyl)-2-[(3S)-3-hydroxypyrrolidin-1-yl]pyrrolo[2,3-d]pyrimidine-5-carboxamide] and `Cc1ccc(O)c(C)c1-n1c(N)c(C(N)=O)c2cnc(N3CC[C@@H](O)C3)nc21` [Compound 583, 6-amino-7-(3-hydroxy-2,6-dimethyl-phenyl)-2-[(3R)-3-hydroxypyrrolidin-1-yl]pyrrolo[2,3-d]pyrimidine-5-carboxamide] cannot be ordered by IC50: < 50 nM for the first, < 50 nM for the second.

`Cc1ccn2c(-c3c(C)ccc(O)c3C)c(N)c(C(N)=O)c2n1` [Compound 550, 7-amino-6-(3-hydroxy-2,6-dimethyl-phenyl)-2-methyl-pyrrolo[1,2-a]pyrimidine-8-carboxamide] and `Cc1ccn2c(-c3c(C)ccc(O)c3C)c(N)c(C(N)=O)c2c1` [Compound 552, 2-amino-3-(3-hydroxy-2,6-dimethylphenyl)-7-methylindolizine-1-carboxamide] fall in the same range of IC50: 100 to 1000 nM for the first, 100 to 1000 nM for the second.

`Cc1ccc(O)c(C)c1-n1c(N)c(C(N)=O)c2cnc(N3CC(O)C3)nc21` [Compound 573] and `Cc1ccc(O)c(C)c1-n1c(N)c(C(N)=O)c2cnc(N[C@@H]3CCC[C@H]3O)nc21` [Compound 580, 6-amino-7-(3-hydroxy-2,6-dimethylphenyl)-2-(((1R,2R)-2-hydroxycyclopentyl)amino)-7H-pyrrolo[2,3-d]pyrimidine-5-carboxamide] cannot be ordered by IC50: < 50 nM for the first, < 50 nM for the second.

Compared with `Cc1cc2c(c(C)c1-n1c(N)c(C(N)=O)c3cc(Cl)cnc31)OCO2` [Compound 546, 2-amino-5-chloro-1-(4,6-dimethylbenzo[d][1,3]dioxol-5-yl)-1H-pyrrolo[2,3-b]pyridine-3-carboxamide], `Cc1cnc2c(c1)c(C(N)=O)c(N)n2-c1c(C)ccc2ocnc12` [Compound 553, 2-amino-5-methyl-1-(5-methylbenzo[d]oxazol-4-yl)-1H-pyrrolo[2,3-b]pyridine-3-carboxamide] is lower in IC50: > 1000 nM for the first, 100 to 1000 nM for the second.

Compared with `CCN(CC)c1ncc2c(C(N)=O)c(N)n(-c3c(C)ccc(O)c3C)c2n1` [Compound 609, 6-amino-2-(diethylamino)-7-(3-hydroxy-2,6-dimethylphenyl)-7H-pyrrolo[2,3-d]pyrimidine-5-carboxamide], `Cc1ccc(O)c(C)c1-n1c(N)c(C(N)=O)c2cnc(NCCO)nc21` (single isomer, unassigned) [Compound 585, 6-amino-7-(3-hydroxy-2,6-dimethylphenyl)-2-((2-hydroxyethyl)amino)-7H-pyrrolo[2,3-d]pyrimidine-5-carboxamide] is higher in IC50: < 50 nM for the first, > 1000 nM for the second. The first is the more potent here.

First: Cc1ccc(O)c(C)c1-n1c(N)c(C(N)=O)c2cnc(NC(=O)[C@H]3CCCN3)nc21 [Compound 584, 6-amino-7-(3-hydroxy-2,6-dimethylphenyl)-2-(pyrrolidine-2-carboxamido)-7H-pyrrolo[2,3-d]pyrimidine-5-carboxamide]
Second: Cc1ccc(O)c(C)c1-n1c(N)c(C(N)=O)c2cnc(N[C@H]3CCC[C@@H]3O)nc21 [Compound 579, 6-amino-7-(3-hydroxy-2,6-dimethylphenyl)-2-(((1S,2S)-2-hydroxycyclopentyl)amino)-7H-pyrrolo[2,3-d]pyrimidine-5-carboxamide]
The IC50 of the first is higher: 100 to 1000 nM for the first, < 50 nM for the second. The second is the more potent here.

`Cc1ccc(O)c(C)c1-n1c(N)c(C(N)=O)c2cc3c(nc21)OCCN3C` [Compound 568, 7-amino-6-(3-hydroxy-2,6-dimethylphenyl)-1-methyl-1,2,3,6-tetrahydropyrrolo [3′,2′:5,6]pyrido[2,3-b][1,4]oxazine-8-carboxamide] and `Cc1ccc(O)c(C)c1-n1c(N)c(C(N)=O)c2cc3c(nc21)CCN3` [Compound 620] cannot be ordered by IC50: < 50 nM for the first, < 50 nM for the second.

`Cc1c(O)cc(F)c(C)c1-n1c(N)c(C(N)=O)c2cnc(C3CC3)c(F)c21` [Compound 623, 2-amino-6-cyclopropyl-7-fluoro-1-(3-fluoro-5-hydroxy-2,6-dimethyl-phenyl)pyrrolo[3,2-c]pyridine-3-carboxamide] and `Cc1ncc2c(C(N)=O)c(N)n(-c3c(C)c(O)cc(F)c3C)c2n1` [Compound 595, 6-amino-7-(3-fluoro-5-hydroxy-2,6-dimethyl-phenyl)-2-methyl-pyrrolo[2,3-d]pyrimidine-5-carboxamide] cannot be ordered by IC50: < 50 nM for the first, < 50 nM for the second.

First: Cc1ccc(O)c(C)c1-n1c(N)c(C(N)=O)c2cnc(C#Cc3ccc(F)cc3)c(F)c21 [Compound 622, 2-amino-7-fluoro-6-((4-fluorophenyl)ethynyl)-1-(3-hydroxy-2,6-dimethylphenyl)-1H-pyrrolo[3,2-c]pyridine-3-carboxamide]
Second: Cc1ccc(O)c(C)c1-n1c(N)c(C(N)=O)c2cncc(C#N)c21 [Compound 587, 2-amino-7-cyano-1-(3-hydroxy-2,6-dimethylphenyl)-1H-pyrrolo[3,2-c]pyridine-3-carboxamide]
The IC50 of the first is higher: 50 to 100 nM for the first, < 50 nM for the second. The second is the more potent here.

Compared with `Cc1ccc(O)c(C)c1-n1c(N)c(C(N)=O)c2cnc(C#CC3CC3)nc21` [Compound 621], `Cc1ccc(O)c(C)c1-n1c(N)c(C(N)=O)c2cnc(N[C@@H]3CCC[C@@H]3O)nc21` (atropisomer, axis not shown) [Compound 591] is higher in IC50: < 50 nM for the first, 50 to 100 nM for the second.

First: Cc1ccc(O)c(C)c1-c1c(N)c(C(N)=O)c2nccc(C)n12 [Compound 548, 7-amino-6-(3-hydroxy-2,6-dimethyl-phenyl)-4-methyl-pyrrolo[1,2-a]pyrimidine-8-carboxamide]
Second: Cc1cn2c(C(N)=O)c(N)c(-c3c(C)ccc(O)c3C)c2cn1 [Compound 555, 7-amino-8-(3-hydroxy-2,6-dimethyl-phenyl)-3-methyl-pyrrolo[1,2-a]pyrazine-6-carboxamide]
The IC50 of the first is higher: 100 to 1000 nM for the first, < 50 nM for the second.

In the case of `Cc1ccc(O)c(C)c1-n1c(N)c(C(N)=O)c2cnc(NCCO)nc21` (atropisomer, axis not shown) [Compound 588, 6-amino-7-(3-hydroxy-2,6-dimethylphenyl)-2-((2-hydroxyethyl)amino)-7H-pyrrolo[2,3-d]pyrimidine-5-carboxamide], the IC50 is reported as < 50 nM.
